Measured values as given in US20070135412A1, “Compounds for the treatment of ocular dryness caused by photorefractive surgery” (priority 2003, published 2007).

How the values were obtained:
[1] = test system: fibres innervating the cornea (polymodal nociceptive fibres); assay: Extracellular recording of corneal nerve fibres in cats with a corneal wound, before and after topical drug application; assay type: in vivo, cat; details: anaesthetized cats 7 and 15 days after circular corneal wound; for responses evoked by pulses of CO2 of 30 s duration: 98% CO2 on receptor field around the lesion, before vs after topical application (same concentration ranges); for spontaneous activity of the fibres innervating the zones around the lesion: before vs after topical application (carbamazepine 0.001-0.01%, phenyloin 0.001-0.1%, mexiletine 0.001-0.1%, lidocaine 0.0005-0.01%, tocaidine 0.001-0.01%)
Procedure: Tests were carried out on fifteen adult cats of both sexes, anaesthetized with pentobarbital sodium (Nembutal, 40 mg/kg, i.p.). The cornea of both eyes was anaesthetized topically by instillation of tetracaine 0.1% and oxybuprocaine hydrochloride 0.4%.
A circular wound was made in the centre of the cornea with a 5 mm dia. trepan which penetrated 40-50 μm below the Bowman membrane. The animals were treated with topical and systemic antibiotics, leaving them to recover for 1-2 weeks.
The recording tests were carried out 7 and 15 days after surgery. The animals were anaesthetized with Nembutal (40 mg/kg, i.p.) and were maintained in a state of areflexia during the experiment by intravenous infusion of dilute Nembutal (5 mg/kg) in the saphenous vein. The animals breathed spontaneously through a tracheal cannula. Respiratory CO2, rectal temperature and arterial pressure were monitored continuously and were kept stable. The animals were sacrificed with an overdose of Nembutal at the end of the experiment.
Extracellular recording was made of nerve fibres isolated from the cornea, obtained from the ciliary nerves of the eye, using silver/silver chloride electrodes and conventional electrophysiological equipment, as described previously (cf. Belmonte, C., Gallar, J., Pozo, M. A., Rebollo, I. (1991) Excitation by irritant chemical substances of sensory afferent units in the cat's cornea. J. Physiol. 437: 709-725).
The corneal sensory fibres were identified by their response to mild stimulation with a wet brush. The mechanical threshold was measured with a Cochet-Bonnet aesthesiometer with a No. 12 filament (0.1-1.9 mN) and with calibrated von Frey hairs (0.002-2.0 N). The receptor fields were mapped with a suprathreshold force hair. Sensitivity to chemical stimuli was investigated by applying a pulse of gas containing 98% CO2 at a flow rate of 80 ml/min on the receptor field for 30 s.
The conduction velocity was measured by observing the latency to electric shocks (0.1-0.5 ms, 0.5-3.0 mA) applied on the receptor field with a pair of silver electrodes 3-5 mm apart. The conduction distance was estimated with a silk thread of 0.8 G positioned on the path of the nerve.
The nerve discharges and the stimulation pulses were recorded on an FM magnetic tape recorder for off-line computer analysis with suitable software (CED 1401plus and Spike2 for Windows). The spontaneous activity (average discharge frequency in pulses per second) and the changes in discharge caused by the various stimuli were measured.
The fibres were classified as peripheral and central according to the localization of their receptor field. […] Depending on the localization of the receptor field the fibres were classified as far from the wound or close to or bordering on the wound. The control data were obtained from intact corneas.
The response of the polymodal nociceptive fibres to chemical stimulation was investigated in the fibres whose receptor field touched the damaged area and in those whose receptor field was outside of and far from the lesion. The spontaneous activity and the discharge of the fibres in response to stimulation with CO2 were measured before and after topical application of carbamazepine (0.001-0.01%), phenyloin (5,5-diphenylhydantoin) (0.001-0.1%), mexiletine (0.001-0.1%), lidocaine (0.0005-0.01%) and tocaidine (0.001-0.01%).

[2] = test system: sensations of ocular dryness that appear after photorefractive surgery of the LASIK type; assay: Clinical study of topical carbamazepine versus placebo on ocular dryness after LASIK surgery; assay type: in vivo, human; details: ophthalmic solution at 0.01%, one drop in the operated eye twice a day for 14 days after LASIK
Procedure: A clinical study was carried out for comparing the attenuating effect produced by the topical administration of carbamazepine and of a placebo on the sensations of ocular dryness that appear after photorefractive surgery of the LASIK type. The study included 124 subjects, men and women in the age range 21-45 years, who underwent routine, elective, unilateral LASIK surgery for correction of myopia. The carbamazepine was administered in ophthalmic solution at 0.01%. After surgery, the subjects received one drop of the study medication in the operated eye, twice a day for 14 consecutive days. Postoperative examinations were carried out on days 1, 3, 7 and 14. The efficacy of the treatment was assessed by measuring the sensation of ocular dryness, pain intensity, and the overall analgesic efficacy, employing independent visual-analogy scales. The symptoms of eye inflammation, burning/stinging sensations, lacrimation etc. were also recorded.

| Structure (SMILES) | responses evoked by pulses of CO2 of 30 s duration [1] | spontaneous activity of the fibres innervating the zones around the lesion [1] | incidence of symptoms of dryness throughout the day [2] | incidence of the symptoms of ocular dryness ([2]; statistically significant) |
| --- | --- | --- | --- | --- |
| NC(=O)N1c2ccccc2C=Cc2ccccc21 [carbamazepine] | dose-dependent decrease | dose-dependent decrease | significantly lower | more reduced incidence |
| CCN(CC)CC(=O)Nc1c(C)cccc1C [lidocaine] | dose-dependent decrease | dose-dependent decrease | – | – |
| Cc1cccc(C)c1OCC(C)N (stereo not drawn) [mexiletine] | dose-dependent decrease | dose-dependent decrease | – | – |
| O=C1NC(=O)C(c2ccccc2)(c2ccccc2)N1 [phenyloin, 5,5-diphenylhydantoin] | dose-dependent decrease | dose-dependent decrease | – | – |
| Cc1cccc(C)c1NC(=O)C(C)N (stereo not drawn) [tocaidine] | dose-dependent decrease | dose-dependent decrease | – | – |
